“Also recorded” adds a separate entry of the source. Each block holds one molecule with its values, some of them ahead of it.
Experiments:
[1] = system: antigen-specific T cells (CD4 or CD8-positive) from healthy human PBMCs; experiment: Immunogenicity evaluation of peptides with healthy human PBMCs (ICS for IFNy or IFNy ELISA); type: cell-based; settings: for activation of CD8-positive cells: donor No. 9; for immunogenicity as HLA Class I / Class II epitope / activation of CD4-positive T cells: healthy donor PBMCs; for activation of CD4-positive T cells: CD4-positive IFNy-producing cells; for samples in which the peptide had immunogenicity (positive/tested): single peptide re-analysis, 24 donors (Mix-1, Mix-2 peptides) or 25 donors (Mix-3 peptides)
Source text: Peripheral blood mononuclear cells (PBMCs) that were those of a lot containing HLA-A*24:02 or A*02:01 of purified normal human PBMCs (Precision Bioservice, 93000-10M or -50M), were selected and used. Alternatively, PBMCs were separated and collected by density gradient centrifugation from peripheral blood provided by 10 healthy volunteers (including those of HLA-A*24:02 or A*02:01) recruited at the Kanagawa Cancer Center Research Institute, and were used in the experiment.
Healthy human PBMCs of 2×10^6 cells were cultured (a CO2 incubator; 5% CO2 and at 37° C.) for 7 days in the presence of the peptides to be evaluated (2, 2.5 or 5 μg/mL, and in the case of Mix (described later), 2 lag/mL for each peptide), and then the cells were collected. AIM-V medium (Thermo Fisher Scientific K.K., 12055-091) supplemented with a 5% human serum (NIP Biomedicals, 2931949) was used as medium.
On the other hand, the PBMCs of the same lot were cultured in the presence of a GM-CSF and IL-4 for 7 days to differentiate into dendritic cells (DC), and a part thereof was cryopreserved.
Cell stimulation for evaluation of immunogenicity was carried out according to the method outlined in FIG. 2. Namely, the PBMCs stimulated with the peptide for 7 days were collected and co-cultured in the presence of DC (1×10^5 cells) treated with a mitomycin C (60 μg/mL, Kyowa Kirin Co., Ltd.), each peptide (2, 2.5 or 5 μg/mL), and 0.1 KE/mL of OK-432 (for injection of Picibanil, Chugai Pharmaceutical Co., Ltd.). An IL-2 (PeproTech, Inc., AF-200-02) was added at 10 IU/mL on the second day of the co-culture (Day 9 with the stimulation start date as Day 0), and the cells were further cultured for 5 days.
After culturing (Day 14), the cells were collected, the cryopreserved DC was thawed, and the cells were co-cultured again in the presence of the same concentration of each peptide for 7 days. The cells cultured for a total of 21 days were collected, and activation of antigen-specific T cells was confirmed by intracellular cytokine staining (ICS) or IFNy ELISA. For evaluation, the PBMCs for 24 donors (of Mix-1 and Mix-2) or the PBMCs for 25 donors (of Mix-3) (the donor numbers 1 to 10 are derived from healthy volunteers, and the donor numbers with 3 digits were purchased from Precision Bioservice, Inc.), were used. In this study, 10 kinds of peptides designed from the sequences containing the driver mutations in Example 1 and synthesized (SEQ ID NO: 1 to SEQ ID NO: 10) were mixed to the following mixtures containing 3 to 4 kinds of peptides (see FIG. 4): Mix-1: a mixture of KRA S-G 1 2C (SEQ ID NO: 3), NRAS-Q61K (SEQ ID NO: 6) and PIK3CA-H1047R (SEQ ID NO: 8); Mix-2: a mixture of KRAS-G12V (SEQ ID NO: 2), NRAS-Q61R (SEQ ID NO: 7), and PIK3CA-E545K (SEQ ID NO: 9); and Mix-3: a mixture of KRAS-G12D (SEQ ID NO: 1), KRAS-G12R (SEQ ID NO: 4), KRAS-G13D (SEQ ID NO: 5), and C-Kit-D816V (SEQ ID NO: 10). First, activation of antigen-specific T cells by stimulation with each Mix was observed, and when the activation was observed, the T cells were stimulated in the presence of each peptide alone to identify a peptide having immunogenicity. The presence or absence of activation was determined by the ICS (IFNy) or ELISA (IFNy in the culture supernatant).
Intracellular cytokine staining (ICS) was carried out according to the following procedure. The cells (5.0×10^4 cells) cultured for 21 days in the presence of the peptide and collected in the present Example, and antigen-presenting cells (APC) (autologous DC; 5×10^3 cells) were placed in a 96-well U bottom plate and cultured for 2 hours in the presence of the peptide. 10 μg/mL of Brefeldin A (Merck KGaA, B7651) was added to the cells to culture for 20 to 24 hours. […]

[2] = system: PIK3CA-H1047R-specific TCR-T cells; experiment: Antigen specificity of TCR-T cells (IFNy-producing cells by flow cytometer); type: cell-based, human; settings: TCR-T cells co-cultured with APC (donor No. 9-derived EB virus immortalized B cells) in the presence of the peptide, 20 to 24 hours
Procedure: Via a retrovirus vector (donated by Toyama University) to which the TCRa chain gene (SEQ ID NO: 29) and TCRI3 chain gene (SEQ ID NO: 30) identified in Example 5 derived from the donor No. 9-derived PIK3CA-H1047R-specific T cells were inserted, a cell line (TCR-T cell) expressing the TCR gene was prepared by introducing the PIK3CA-H1047R-specific TCR gene into T cells derived from healthy subjects. The prepared TCR-T cells (TCR gene-expressing cell line) (5.0×10^4 cells as T cells) and APC (donor No. 9-derived EB virus immortalized B cells; 5×10^3 cells) were cultured in a 96 well U bottom plate for 20 to 24 hours in the presence of the antigen peptide (PIK3CA-H1047R (SEQ ID NO: 8)) or the wild-type peptide thereof ([…]), then the cultured cells were collected, and antigen specificity was confirmed by detecting IFNy-producing cells with a flow cytometer.

[3] = target: T1, PIK3CA H1047R peptide on HLA-DRB1*04:05 (human); experiment: cytokine release
T1 peptide: ALEYFMKQMNDARHG

[4] = target: T2, PIK3CA H1047R peptide on HLA-DRB1*04:05 (human); experiment: cytokine release
T2 peptide: EYFMKQMNDARHGGW

[5] = target: T3, PIK3CA H1047R peptide on HLA-DRB1*04:05 (human); experiment: cytokine release
T3 peptide: EALEYFMKQMNDARH

[6] = target: T4, PIK3CA H1047R peptide on HLA-DRB1*04:05 (human); experiment: cytokine release
T4 peptide: FMKQMNDARHGGWT

[7] = target: T5, PIK3CA H1047R peptide on HLA-DRB1*04:05 (human); experiment: cytokine release
T5 peptide: MKQMNDARHGGWTT

[8] = target: T6, PIK3CA wild-type peptide on HLA-DRB1*04:05 (human); experiment: cytokine release
T6 peptide: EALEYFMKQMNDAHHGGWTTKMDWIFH

[9] = target: T7, PIK3CA H1047R peptide on HLA-DRB1*04:05 (human); experiment: cytokine release
T7 peptide: YFMKQMNDARHGGW

[10] = target: T8, PIK3CA H1047R peptide on HLA-DRB1*04:05 (human); experiment: cytokine release
T8 peptide: LEYFMKQMNDARHGG

Molecule: C-Kit-D816V: 27-mer C-Kit D816V neoantigen peptide GRITKICDFGLAR[V]IKNDSNYVVKGNA (GRITKICDFGLARVIKNDSNYVVKGNA; listed as Homo sapiens)
activation of CD8-positive cells [1]: activation of CD8-positive cells was observed in 1 donor | immunogenicity as HLA Class I / Class II epitope [1]: immunogenicity as both the HLA Class I epitope and the Class II epitope | activation of CD4-positive T cells [1]: those derived from 4 donors were CD4 positive; also recorded: activation of CD4-positive T cells was observed; also recorded: particularly strong ability to activate CD4-positive helper T cells | samples in which the peptide had immunogenicity (positive/tested) [1]: 5/25

Molecule: EALEYFMKQMNDAHHGGWTTKMDWIFH [WT1, wild-type peptide of PIK3CA-H1047R, reference compound]
frequency of IFNy-producing cells [2]: less than 1%

Molecule: KRAS-G12D: 27-mer KRAS G12D neoantigen peptide MTEYKLVVVGA[D]GVGKSALTIQLIQNH
activation of CD4-positive T cells [1]: activation of CD4-positive T cells was observed; also recorded: particularly strong ability to activate CD4-positive helper T cells | frequency of samples in which the peptide had immunogenicity ([1]; samples derived from healthy people, single peptide analysis): 4.0% | samples in which the peptide had immunogenicity (positive/tested) [1]: 1/25

Molecule: NRAS-Q61R: 27-mer NRAS Q61R neoantigen peptide GETCLLDILDTAG[R]EEYSAMRDQYMRT (GETCLLDILDTAGREEYSAMRDQYMRT; listed as Homo sapiens)
activation of CD4-positive T cells [1]: they were all CD4-positive T cells; also recorded: activation of CD4-positive T cells was observed; also recorded: particularly strong ability to activate CD4-positive helper T cells | samples in which the peptide had immunogenicity (positive/tested) [1]: 3/24

Molecule: PIK3CA-H1047R: 27-mer PIK3CA H1047R neoantigen peptide EALEYFMKQMNDA[R]HGGWTTKMDWIFH (EALEYFMKQMNDARHGGWTTKMDWIFH; listed as Homo sapiens)
frequency of IFNy-producing cells [2]: 30.4%±0.9% | activation of CD8-positive cells [1]: activation of CD8-positive cells was also observed | immunogenicity as HLA Class I / Class II epitope [1]: immunogenicity as both the HLA Class I epitope and the Class II epitope | activation of CD4-positive T cells [1]: All antigen-specific T cells activated in the 4 donors were CD4 positive; also recorded: activation of CD4-positive T cells was observed; also recorded: particularly strong ability to activate CD4-positive helper T cells | samples in which the peptide had immunogenicity (positive/tested) [1]: 4/24

binding result [3]: recognises | binding result [4]: recognises | binding result [5]: recognises | binding result [6]: recognises | binding result [7]: recognises | binding result [8]: no recognition | binding result [9]: recognises | binding result [10]: recognises
B1: TCR of the donor No. 9-derived PIK3CA-H1047R-specific T cells (SEQ ID NOs 29 and 30) (TCR, V domains shown)
Valpha: QQVKQSPQSLIVQKGGISIINCAYENTAFEYFPWYQQFPGKGPALLIAIRPDVSEKKEGRFTISFNKSAKQFSLHIMDSQPGDSATYFCAASGSYNNNDMRFGAGTRLTVKP
Vbeta: NAGVTQTPKFQVLKTGQSMTLQCAQDMNHEYMSWYRQDPGMGLRLIHYSVGAGITDQGEVPNGYNVSRSTTEDFPLRLLSAAPSQTSVYFCASSYASPGTGYSGELFFGEGSRLTVL
